Measurements reported in patent US20250188033A1, “INHIBITOR OF REPLICATION PROTEIN A1 OF TRYPANOSOMA BRUCEI AND METHOD OF USE THEREOF” (Research Foundation of the City University of New York, published 2025).

Tested on: Trypanosoma brucei
Assay: ALAMARBLUE cell viability / growth assay of T. brucei cells
Format: cell-based
Details: T. brucei, 72 hours, normalized to DMSO control
Protocol: To determine cell growth rate, WT and two TbRPA1 RNAi KD strains (KD1 and KD2) were seeded at a density of 1×10^5 cells/ml and cultured with or without tetracycline for the induction of RNAi. Cells were counted every 12 hours for 2 days. To determine the viability of TbRPA1-depleted cells, ALAMARBLUE® assay (Thermo Fisher, an established colorimetric technique that detects metabolically active cells) was used. Cells from each time point were incubated with ALAMARBLUE® dye for 4-6 hours and percentage of live cells was determined by measuring resorufin converted from resazurin by reducing environment of live cells. Synergy H1 microplate reader (BioTek) was used with 560/590 nm (excitation/emission) filter settings and Relative Fluorescence Unit (RFU) values were obtained. The percentage of viable cells were calculated from the RFU values.
The initial assessment of JC-229's inhibitory effect on T. brucei cell growth was performed at 50 μM concentration. Trypanosome cells were seeded at 1×10^3 cells/ml density in 180 μl in a 96-well culture plate in triplicate. These cells were incubated with 50 μM JC-229 for 24, 48, and 72 hours. DMSO was used as a vehicle control at 0.0075%. JC-229-treated culture and control cultures were analyzed with the ALAMARBLUE® dye as described above.
To obtain the EC50 value of JC-229, T. brucei cells were seeded at 1×10^3 cells/ml density in 180 μl in a 96-well culture plate in triplicate. These cells were incubated for 72 hours with increasing concentrations of JC-229, (0.5 μM to 50 μM) and cell viability was determined using the ALAMARBLUE® dye as described above.
Trypanosoma brucei cytotoxicity of JC-229 and analogs were measured using ALAMARBLUE® assay (Rampersad, S. N. Multiple applications of ALAMARBLUE® as an indicator of metabolic function and cellular health in cell viability bioassays. Sensors (Basel) 12, 12347-12360 (2012). Trypanosome cells were seeded at 1×10^3 cells/ml density in 180 μl in a 96-well culture plate in triplicate. These cells were incubated with indicated concentration of JC compounds for 72 hours. DMSO was used as a vehicle control at 0.0075%. JC compound-treated cultures were then incubated with ALAMARBLUE® dye for 4-6 hours and percentage of live cells was determined using Synergy H1 microplate reader (BioTek) with 560/590 nm (excitation/emission) filter settings and Relative Fluorescence Unit (RFU) values were obtained. The percentage of viable cells were calculated from the RFU values by normalizing to DMSO treated control. In one embodiment, the inhibitor is characterized in that it provides at least 50%, at least 80% or at least 90% inhibition at a concentration of 5 μM when tested in accordance with the above conditions.

Structure (SMILES)	inhibition at 2 µM (Trypanosoma brucei, 2 μM)	inhibition at 5 µM (Trypanosoma brucei, 5 μM)	% Inhibition @2 μM (2 μM)	% Inhibition @5 μM (5 μM)	% Inhibition @10 μM
Cc1ccc(C(=O)Nc2ccc(Cl)c(Cl)c2)cc1S(=O)(=O)N1CCC[C@@H](N)C1 [JC-963]	96%	100%			
Cc1ccc(C(=O)Nc2ccc(Cl)c(Cl)c2)cc1S(=O)(=O)N1CCC(NS(=O)(=O)c2cccc(Br)c2)CC1 [JC-1010]			9%	−15%	
Cc1ccc(C(=O)Nc2ccc(Cl)c(Cl)c2)cc1S(=O)(=O)C1CCCN(C(=O)OC(C)(C)C)C1 (centres unmarked) [Jc-950]			28%	3%	
Cc1ccc(C(=O)NCCc2ccccc2)cc1S(=O)(=O)Nc1ccc(Cl)c(Cl)c1 [JC-859]			13%		9%
Cc1ccc(C(=O)Nc2ccc(Cl)c(Cl)c2)cc1S(=O)(=O)NCCCc1ccccc1 [JC-908]			18%		62%
Cc1ccc(C(=O)Nc2ccc(Cl)c(Cl)c2)cc1S(=O)(=O)Nc1cc[nH]n1 [JC-902]			14%		56%
Cc1ccc(C(=O)Nc2ccc(Cl)c(Cl)c2)cc1S(=O)(=O)N1CCCC(NC(=O)OC(C)(C)C)C1 (centres unmarked) [JC-928]			15%	99.6%	100%
Cc1ccc(C(=O)Nc2ccc(Cl)c(Cl)c2)cc1S(=O)(=O)N(CCCCO)Cc1ccccc1 [JC-891]			13%	88.8%	100%
Cc1ccc(C(=O)Nc2ccc(Cl)c(Cl)c2)cc1S(=O)(=O)NCCOCCO [JC-890]			4%		37%
Cc1ccc(C(=O)Nc2ccc(Cl)c(Cl)c2)cc1S(=O)(=O)C1CCNCC1.O=C(O)C(F)(F)F [JC-911]			11%		25%
Cc1ccc(C(=O)Nc2ccc(Cl)c(Cl)c2)cc1S(=O)(=O)Nc1ccc(C#N)cc1N [JC-889]			−3%		−11%
Cc1ccc(C(=O)N2CCOCC2)cc1S(=O)(=O)Nc1ccc(Cl)c(Cl)c1 [JC-867]			−14%		31%
Cc1ccc(C(=O)Nc2ccc(Cl)c(Cl)c2)cc1S(=O)(=O)N1CCC(NS(=O)(=O)c2ccc(Br)cc2)CC1 [JC-1014]			100%	100%	
Cc1ccc(C(=O)Nc2ccc(Cl)c(Cl)c2)cc1S(=O)(=O)n1c(CN)nc2ccccc21.O=C(O)C(F)(F)F [JC-904]			14%		2%
Cc1ccc(C(=O)Nc2ccc(Cl)c(Cl)c2)cc1S(=O)(=O)N1CCCC(NC(=O)Cc2ccccc2)C1 (centres unmarked) [JC-930]			4%	99.7%	100%
Cc1ccc(C(=O)Nc2ccc(Cl)c(Cl)c2)cc1S(=O)(=O)N1CCCC(NC(=S)Nc2ccc(F)cc2)C1 (centres unmarked) [JC-965]			64%	100%	
Cc1ccc(C(=O)Nc2ccc(Cl)c(Cl)c2)cc1S(=O)(=O)Nc1ccncc1 [JC-915]			−11%		6%
O=C(Nc1ccc(Cl)c(Cl)c1)c1ccc(O)c(S(=O)(=O)Nc2ccc(Cl)c(Cl)c2)c1 [JC-907]			12%		5%
Cc1ccc(C(=O)Nc2ccc(Cl)c(Cl)c2)cc1S(=O)(=O)N1CCC(NS(=O)(=O)c2ccc(COc3ccccc3)cc2)CC1 [JC-1013]			13%	−9%	
Cc1ccc(C(=O)Nc2ccc(Cl)c(Cl)c2)cc1S(=O)(=O)N1CCCC(N)C1.O=C(O)C(F)(F)F (centres unmarked) [JC-959]			64%	100%	
Cc1ccc(C(=O)Nc2ccc(Cl)c(Cl)c2)cc1S(=O)(=O)C1CCN(C(=O)OC(C)(C)C)CC1 [JC-910]			18%		73%
Cc1ccc(C(=O)Nc2ccc(Cl)c(Cl)c2)cc1S(=O)(=O)NCCNS(=O)(=O)c1cc(C(=O)Nc2ccc(Cl)c(Cl)c2)ccc1C [JC-1021]			0%	−5%	
Cc1ccc(C(=O)Nc2ccc(Cl)c(Cl)c2)cc1S(=O)(=O)N1CCC(NS(=O)(=O)c2ccc(CBr)cc2)CC1 [JC-1009]			99%	100%	
Cc1ccc(C(=O)NNc2ccccc2)cc1S(=O)(=O)Nc1ccc(Cl)c(Cl)c1 [JC-860]			5%		24%
Cc1ccc(C(=O)Nc2ccc(Cl)c(Cl)c2)cc1S(=O)(=O)C1CCC(NC(=O)Cc2ccccc2)CC1 (centres unmarked) [JC-926]			−8%	28.9%	100%
Cc1ccc(C(=O)Nc2ccc(Cl)c(Cl)c2)cc1S(=O)(=O)NC(Cc1ccccc1)C(N)=O (centres unmarked) [JC-870]			−34%		49%
Cc1ccc(C(=O)Nc2ccc(Cl)c(Cl)c2)cc1S(=O)(=O)NCCCNC(=O)Cc1ccccc1 [JC-934]			11%		34%
Cc1ccc(C(=O)Nc2ccc(Cl)c(Cl)c2)cc1S(=O)(=O)N1CCC(NC(=O)Cc2ccccc2)CC1 [JC-967]			15%	−24%	
Cc1ccc(C(=O)Nc2ccc(Cl)c(Cl)c2)cc1S(=O)(=O)N1CCCC(NC(=O)OC(C)(C)C)C1 (centres unmarked) [JC-962]			36%	100%	
